ChEMBL document CHEMBL1201862, “PubChem BioAssay data set” (2004)
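Tested at 5 concentrations; 48 h exposure; 96-well plates; endpoints linearly interpolated, else capped at highest concentration. GI50 marks 50% less growth.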 Active and inactive are the calls of the source. No stated cut-off is given here; in the data, active = GI50 up to about 1.1 µM and inactive = higher.

Assays:
Test in all cases: NCI anticancer screen, dose series, 48 h
NCI-H460 = tested on: NCI-H460
KM12 = tested on: KM12
ACHN = tested on: ACHN
LOX IMVI = tested on: LOX IMVI
RXF 393 = tested on: RXF 393
TK-10 = tested on: TK-10
CAKI-1 = tested on: CAKI-1
UACC-62 = tested on: UACC-62
SF-539 = tested on: SF-539
HCT-116 = tested on: HCT-116
EKVX = tested on: EKVX
OVCAR-4 = tested on: OVCAR-4
MCF7 = tested on: MCF7
COLO 205 = tested on: COLO 205
Malme-3M = tested on: Malme-3M
A498 = tested on: A498
HT-29 = tested on: HT-29
786-0 = tested on: 786-0
U-251 = tested on: U-251
CCRF-CEM = tested on: CCRF-CEM

Compound: COc1cc(C2c3cc4c(cc3OC(N3CCCC3)C2C)OCO4)cc(OC)c1OC (stereo not given)
- GI50 (NCI-H460): 0.767 µM (active)
- GI50 (KM12): 0.322 µM (active)
- GI50 (ACHN): 1.47 µM (inactive)
- GI50 (LOX IMVI): 0.766 µM (active)
- GI50 (RXF 393): 0.286 µM (active)
- GI50 (TK-10): 0.938 µM (active)
- GI50 (CAKI-1): 0.664 µM (active)
- GI50 (UACC-62): 0.509 µM (active)
- GI50 (SF-539): 0.246 µM (active)
- GI50 (HCT-116): 0.481 µM (active)
- GI50 (EKVX): 3.53 µM (inactive)
- GI50 (OVCAR-4): 2.31 µM (inactive)
- GI50 (MCF7): 0.296 µM (active)
- GI50 (COLO 205): 0.433 µM (active)
- GI50 (Malme-3M): 0.578 µM (active)
- GI50 (A498): 0.326 µM (active)
- GI50 (HT-29): 0.395 µM (active)
- GI50 (786-0): 0.729 µM (active)
- GI50 (U-251): 0.644 µM (active)
- GI50 (CCRF-CEM): 0.502 µM (active)

Compound: O=c1[nH]nc(-c2ccc([N+](=O)[O-])cc2)[nH]1
- GI50 (NCI-H460): > 100 µM (inactive)
- GI50 (KM12): > 100 µM (inactive)
- GI50 (ACHN): > 100 µM (inactive)
- GI50 (LOX IMVI): > 100 µM (inactive)
- GI50 (RXF 393): > 100 µM (inactive)
- GI50 (TK-10): > 100 µM (inactive)
- GI50 (CAKI-1): > 100 µM (inactive)
- GI50 (UACC-62): > 100 µM (inactive)
- GI50 (SF-539): > 100 µM (inactive)
- GI50 (HCT-116): > 100 µM (inactive)
- GI50 (EKVX): 45.4 µM (inactive)
- GI50 (OVCAR-4): > 100 µM (inactive)
- GI50 (MCF7): > 100 µM (inactive)
- GI50 (COLO 205): > 100 µM (inactive)
- GI50 (Malme-3M): > 100 µM (inactive)
- GI50 (A498): > 100 µM (inactive)
- GI50 (HT-29): > 100 µM (inactive)
- GI50 (786-0): > 100 µM (inactive)
- GI50 (U-251): > 100 µM (inactive)
- GI50 (CCRF-CEM): > 100 µM (inactive)

Compound: Cc1ccc(NC(=O)CSc2nc(O)nc3[nH]cnc23)cc1
- GI50 (NCI-H460): > 100 µM (inactive)
- GI50 (KM12): > 100 µM (inactive)
- GI50 (ACHN): > 100 µM (inactive)
- GI50 (LOX IMVI): 35.6 µM (inactive)
- GI50 (RXF 393): > 100 µM (inactive)
- GI50 (TK-10): > 100 µM (inactive)
- GI50 (CAKI-1): > 100 µM (inactive)
- GI50 (UACC-62): > 100 µM (inactive)
- GI50 (SF-539): 24 µM (inactive)
- GI50 (HCT-116): > 100 µM (inactive)
- GI50 (EKVX): > 100 µM (inactive)
- GI50 (OVCAR-4): > 100 µM (inactive)
- GI50 (MCF7): 45.2 µM (inactive)
- GI50 (COLO 205): > 100 µM (inactive)
- GI50 (Malme-3M): > 100 µM (inactive)
- GI50 (A498): 28.2 µM (inactive)
- GI50 (HT-29): > 100 µM (inactive)
- GI50 (786-0): 44.6 µM (inactive)
- GI50 (U-251): 41.1 µM (inactive)
- GI50 (CCRF-CEM): 27.7 µM (inactive)

Compound: Cc1nc(-n2nc(-c3ccccc3)cc2-c2ccccc2)sc1C(/C=C\c1ccc([N+](=O)[O-])cc1)=N/NC(=S)NN
- GI50 (NCI-H460): 33.5 µM (inactive)
- GI50 (KM12): 43.7 µM (inactive)
- GI50 (ACHN): 40.3 µM (inactive)
- GI50 (LOX IMVI): 26.1 µM (inactive)
- GI50 (RXF 393): 37.4 µM (inactive)
- GI50 (TK-10): 37.2 µM (inactive)
- GI50 (CAKI-1): > 42.5 µM (inactive)
- GI50 (UACC-62): 39.1 µM (inactive)
- GI50 (SF-539): 24.2 µM (inactive)
- GI50 (HCT-116): 19.5 µM (inactive)
- GI50 (EKVX): > 56.6 µM (inactive)
- GI50 (OVCAR-4): 26.2 µM (inactive)
- GI50 (MCF7): 15.4 µM (inactive)
- GI50 (COLO 205): > 31.6 µM (inactive)
- GI50 (Malme-3M): > 58.6 µM (inactive)
- GI50 (A498): > 100 µM (inactive)
- GI50 (HT-29): 30.6 µM (inactive)
- GI50 (786-0): 22.9 µM (inactive)
- GI50 (U-251): > 74.3 µM (inactive)
- GI50 (CCRF-CEM): > 50.8 µM (inactive)
